IC50 and DC50 data for 18 molecules are collected here from patent publication EP4624466A1, “DEGRADER FOR DECOMPOSING CMET PROTEIN, AND PHARMACEUTICAL COMPOSITION COMPRISING SAME” (Innocure Therapeutics, Inc., priority 2022, dated 2024).

One test relates to Hs746T. In words: Cell viability / antiproliferative assay (WST-8), Hs746T. It is filed as cell-based. The conditions noted are these: Homo sapiens, Hs746T cells, 72 hours, Table 2. In general terms: Formazan colour is commonly taken as a measure of viable cells.
The next test concerns MKN-45. Description: Cell viability / antiproliferative assay (WST-8), MKN-45.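 Note: MKN-45 is a human gastric cancer line overexpressing c-MET, growth inhibition read as WST-8 formazan absorbance at 450 nm after 2 h dye incubation.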 To be noted: Homo sapiens, MKN-45, 72 h, read-out: MKN-45 IC50.
Another test concerns EBC-1. In words: Cell viability / antiproliferative assay (WST-8), EBC-1. The conditions noted are these: read-out: EBC-1 IC50. It is filed as cell-based, human.
For test [1], the target named is T1, c-MET (Homo sapiens, UniProt P08581). In words: c-MET protein degradation (Simple Western), MKN-45. Type of test: cell-based. To be noted: c-MET overexpressing gastric cancer cell line MKN-45, treated 24 hours; Table 2. More on the design: assess the resolution of the compound of the present invention for c-MET expressed in cells; endogenous in cells; host or cells: MKN45 (human gastric cancer). The gist of the method: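 c-MET level, GAPDH-normalized and relative to 0.1% DMSO-treated cells, measured by automated capillary Western (3 µg protein) after compound exposure of 48 h for lung or 24 h for gastric cancer lines; DC50 = concentration giving 50% reduction.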
T1 sequence (P08581 25-1390): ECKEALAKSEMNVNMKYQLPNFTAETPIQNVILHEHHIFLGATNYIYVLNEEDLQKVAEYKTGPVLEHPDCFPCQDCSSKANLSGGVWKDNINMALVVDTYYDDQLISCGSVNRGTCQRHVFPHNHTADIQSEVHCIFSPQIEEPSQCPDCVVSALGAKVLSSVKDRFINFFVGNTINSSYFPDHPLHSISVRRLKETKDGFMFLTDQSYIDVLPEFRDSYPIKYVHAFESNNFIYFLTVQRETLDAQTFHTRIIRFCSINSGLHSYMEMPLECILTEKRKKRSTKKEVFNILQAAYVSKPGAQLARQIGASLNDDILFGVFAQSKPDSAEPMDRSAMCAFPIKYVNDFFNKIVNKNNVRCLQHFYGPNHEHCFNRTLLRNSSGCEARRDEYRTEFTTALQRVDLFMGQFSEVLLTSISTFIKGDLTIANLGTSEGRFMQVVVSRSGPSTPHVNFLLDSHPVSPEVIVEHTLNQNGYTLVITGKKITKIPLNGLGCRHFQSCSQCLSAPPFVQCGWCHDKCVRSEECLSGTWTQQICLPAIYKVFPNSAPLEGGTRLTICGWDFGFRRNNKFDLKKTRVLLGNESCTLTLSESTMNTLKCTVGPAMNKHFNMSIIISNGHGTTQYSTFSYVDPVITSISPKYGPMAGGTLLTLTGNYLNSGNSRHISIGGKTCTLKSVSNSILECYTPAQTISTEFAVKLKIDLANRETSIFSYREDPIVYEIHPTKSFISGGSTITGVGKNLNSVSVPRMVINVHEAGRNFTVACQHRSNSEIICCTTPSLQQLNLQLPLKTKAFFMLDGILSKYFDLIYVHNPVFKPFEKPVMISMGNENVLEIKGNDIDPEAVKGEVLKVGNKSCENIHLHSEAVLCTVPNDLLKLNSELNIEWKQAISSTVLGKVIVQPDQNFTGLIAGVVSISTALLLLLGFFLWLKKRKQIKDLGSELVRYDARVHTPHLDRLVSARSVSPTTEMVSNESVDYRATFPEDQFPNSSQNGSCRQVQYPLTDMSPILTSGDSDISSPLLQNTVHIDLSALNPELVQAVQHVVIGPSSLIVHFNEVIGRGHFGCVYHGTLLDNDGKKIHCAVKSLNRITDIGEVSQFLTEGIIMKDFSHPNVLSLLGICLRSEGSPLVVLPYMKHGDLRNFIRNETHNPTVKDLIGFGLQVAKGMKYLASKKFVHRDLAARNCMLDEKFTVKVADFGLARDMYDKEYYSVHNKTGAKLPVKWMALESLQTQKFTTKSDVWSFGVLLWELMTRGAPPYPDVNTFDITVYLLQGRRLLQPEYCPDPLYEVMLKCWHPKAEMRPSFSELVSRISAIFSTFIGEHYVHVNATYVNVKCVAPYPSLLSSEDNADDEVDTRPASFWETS

Test [2] addresses T1, c-MET. In words: c-MET protein degradation (Simple Western), SNU-638. It is filed as cell-based. More on the design: assess the resolution of the compound of the present invention for c-MET expressed in cells; endogenous in cells; host or cells: SNU638 (human gastric cancer). The conditions noted are these: c-MET overexpressing gastric cancer cell line SNU-638, treated 24 hours; Table 2. As to the method:
(§1) In order to assess the resolution of the compound of the present invention for c-MET expressed in cells, cells were dispensed in a 12-well plate at a concentration of 2 × 10^5 cells/well, and then gastric cancer cell lines were treated with samples for 24 hours and lung cancer cell lines were treated for 48 hours. Cell lysates were collected using a scraper on ice, centrifuged at 4°C15,000 rpm for 30 min to obtain a protein-containing supernatant. Protein expression was then measured using the Simple Western Automated Western Blot System Abby instrument using 3 µg of protein for each sample. SDS and heat-induced denaturation proteins were separated by molecular weight, attached to capillary, reacted with anti-c-MET or anti-GAPDH antibodies, which are primary antibodies, and then reacted with HRP-conjugated secondary antibodies, and analyzed the protein expression signal with compass software. Protein expression was normalized based on the expression value of GAPDH, and protein development in each sample was measured as a percentage (%) based on 100% of samples treated with 0.1% DMSO carriers, and DC50 (concentration of a compound where 50% protein inhibition is achieved) was calculated from the change in protein expression amount due to compound treatment.

For another test, the system named is SNU-638. Description: Cell viability / antiproliferative assay (WST-8), SNU-638. It is filed as cell-based, human. To be noted: read-out: SNU-638 IC50.
In test [3] the target is T1, c-MET. Description: c-MET protein degradation (Simple Western), EBC-1. It is filed as cell-based. More on the design: assess the resolution of the compound of the present invention for c-MET expressed in cells; endogenous in cells; host or cells: EBC-1 (human lung cancer). The conditions noted are these: c-MET overexpressing lung cancer cell line EBC-1, treated 48 hours; Table 2. The procedure:
as §1

The target of test [4] is T2, c-MET (Homo sapiens, UniProt P08581, DEL963-1009).
T2 construct: assess the resolution of the compound of the present invention for c-MET expressed in cells; endogenous in cells; host or cells: Hs746T (human gastric cancer)
T2 sequence (P08581 with tags, fused parts or gaps DEL963-1009): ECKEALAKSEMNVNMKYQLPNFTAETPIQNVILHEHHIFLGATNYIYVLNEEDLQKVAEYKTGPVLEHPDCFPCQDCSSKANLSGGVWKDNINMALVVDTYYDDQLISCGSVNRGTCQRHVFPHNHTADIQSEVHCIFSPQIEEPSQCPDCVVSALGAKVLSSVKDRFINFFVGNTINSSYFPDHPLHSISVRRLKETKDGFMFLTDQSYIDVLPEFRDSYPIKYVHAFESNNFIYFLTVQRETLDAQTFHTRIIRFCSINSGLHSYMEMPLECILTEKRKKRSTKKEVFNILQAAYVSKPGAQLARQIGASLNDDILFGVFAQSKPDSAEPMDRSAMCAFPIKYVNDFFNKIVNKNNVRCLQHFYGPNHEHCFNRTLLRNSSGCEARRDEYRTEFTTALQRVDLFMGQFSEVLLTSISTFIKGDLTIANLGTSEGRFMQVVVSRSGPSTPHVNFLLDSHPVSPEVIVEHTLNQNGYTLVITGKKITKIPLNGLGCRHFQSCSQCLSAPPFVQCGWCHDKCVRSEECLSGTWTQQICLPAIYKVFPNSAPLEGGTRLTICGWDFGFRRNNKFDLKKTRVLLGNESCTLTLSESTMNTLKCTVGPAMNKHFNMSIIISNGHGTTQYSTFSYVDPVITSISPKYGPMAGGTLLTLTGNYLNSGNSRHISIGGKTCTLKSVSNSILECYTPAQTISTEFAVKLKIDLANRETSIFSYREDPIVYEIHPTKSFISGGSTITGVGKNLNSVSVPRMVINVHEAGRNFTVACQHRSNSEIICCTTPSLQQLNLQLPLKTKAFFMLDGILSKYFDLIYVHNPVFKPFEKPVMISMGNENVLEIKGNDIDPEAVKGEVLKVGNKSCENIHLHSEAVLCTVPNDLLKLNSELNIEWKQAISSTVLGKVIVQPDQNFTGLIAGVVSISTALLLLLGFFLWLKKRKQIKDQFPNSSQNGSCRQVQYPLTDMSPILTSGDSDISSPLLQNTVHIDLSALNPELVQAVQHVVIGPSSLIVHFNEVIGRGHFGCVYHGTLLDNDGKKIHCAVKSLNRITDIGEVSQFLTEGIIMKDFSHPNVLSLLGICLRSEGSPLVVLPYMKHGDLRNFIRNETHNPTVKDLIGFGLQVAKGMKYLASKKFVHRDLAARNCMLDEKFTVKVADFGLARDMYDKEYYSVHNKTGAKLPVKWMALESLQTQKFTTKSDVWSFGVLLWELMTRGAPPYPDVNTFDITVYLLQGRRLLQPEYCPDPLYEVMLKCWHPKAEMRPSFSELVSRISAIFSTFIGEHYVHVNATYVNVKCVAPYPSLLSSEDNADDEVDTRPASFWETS
T2 sequence (P08581 25-307 partner limits assumed): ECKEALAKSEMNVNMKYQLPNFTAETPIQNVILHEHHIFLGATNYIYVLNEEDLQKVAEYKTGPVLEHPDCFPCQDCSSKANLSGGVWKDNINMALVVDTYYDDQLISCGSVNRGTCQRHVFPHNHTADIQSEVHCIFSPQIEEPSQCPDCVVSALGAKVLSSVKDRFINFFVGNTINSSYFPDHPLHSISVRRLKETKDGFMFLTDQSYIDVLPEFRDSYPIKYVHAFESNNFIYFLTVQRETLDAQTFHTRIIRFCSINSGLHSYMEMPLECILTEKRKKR
In words: c-MET protein degradation (Simple Western), Hs746T. It is filed as cell-based. The conditions noted are these: c-MET exon 14 skipping mutant gastric cancer cell line Hs746T, treated 24 hours; Table 2. The procedure: as §1

Where two headings read alike, the source gives them in different places. Some results are limits rather than exact numbers.

By IC50 is commonly meant the concentration that gives 50% inhibition. With `Cc1nn(C2CCC(=O)NC2=O)c(=O)c2ccc(N3CCN(C(=O)CCCN4CCC(COc5cnc(-c6cccc(Cn7nc(-c8cccc(C#N)c8)ccc7=O)c6)nc5)CC4)CC3)cc12` (stereo not shown) [ICT-0001227, 3-(1-(3-(5-((1-(4-(4-(2-(2,6-dioxopiperidin-3-yl)-4-methyl-1-oxo-1,2-dihydropetalazine-6-yl)piperazine-1-yl)4-oxobutyl)piperidine-4-yl)methoxy)pyrimidine-2-yl)benzyl)6-oxo-1,6-dihydropyridazine-3-yl)benzonitrile], the IC50 in the test on Hs746T and in the test on MKN-45 was < 100 nM throughout.
Broadly, the DC50 is the concentration at which degradation of the target reaches its halfway point. A higher DC50 goes with a less potent degrader. Regarding `Cc1nn(C2CCC(=O)NC2=O)c(=O)c2cc(F)c(N3CCN(CC4CCN(C(=O)CN5CCC(COc6cnc(-c7cccc(Cn8nc(-c9cccc(C#N)c9)ccc8=O)c7)nc6)CC5)CC4)CC3)cc12` (stereo not shown) [ICT-0001204], the IC50 in the test on EBC-1 (Homo sapiens, EBC-1, 72 h) was < 100 nM; with Hs746T it was 100 to 1000 nM; in the test on MKN-45, < 100 nM. At c-MET [1], the half-maximal degradation concentration (DC50) is < 100 nM.
As for `N#Cc1cccc(-c2ccc(=O)n(Cc3cccc(-c4ncc(OCC5CCN(CCCC(=O)N6CCN(c7ccc8c(=O)n(C9CCC(=O)NC9=O)ncc8c7)CC6)CC5)cn4)c3)n2)c1` (stereo not shown) [ICT-0001226], the IC50 in the test on Hs746T and in the test on MKN-45 was < 100 nM in each case.
As for `Cc1nn(C2CCC(=O)NC2=O)c(=O)c2ccc(N3CCN(C(=O)CCN4CCC(COc5cnc(-c6cccc(Cn7nc(-c8cccc(C#N)c8)ccc7=O)c6)nc5)CC4)CC3)cc12` (stereo not shown) [ICT-0001224], the IC50 in the test on Hs746T and in the test on MKN-45 was < 100 nM in each case. The half-maximal degradation concentration (DC50) on c-MET [1] was < 100 nM.
For the molecule `N#Cc1cccc(-c2ccc(=O)n(Cc3cccc(-c4ncc(-c5cccc(CN6CCN(c7ccc(C8CCC(=O)NC8=O)cn7)CC6)c5)cn4)c3)n2)c1` (stereo not shown) [ICT-0001449], the DC50 on c-MET [2] is > 1000 nM; on c-MET [3] it was < 100 nM. Moreover, the IC50 was < 100 nM in the test with EBC-1 (Homo sapiens, EBC-1, 72 h) and < 100 nM with SNU-638 (Homo sapiens, SNU-638, 72 h).
In the case of `Cc1nn(C2CCC(=O)NC2=O)c(=O)c2cc(N3CCN(C(=O)CCN4CCC(COc5cnc(-c6cccc(Cn7nc(-c8cccc(C#N)c8)ccc7=O)c6)nc5)CC4)CC3)ccc12` (stereo not shown) [ICT-0001.225], the IC50 in the test on Hs746T and in the test with MKN-45 was < 100 nM in each case. In addition, the DC50 on c-MET [1] is < 100 nM.
The molecule `Cc1nn(C2CCC(=O)NC2=O)c(=O)c2cc(N3CCN(C(=O)CCCN4CCC(COc5cnc(-c6cccc(Cn7nc(-c8cccc(C#N)c8)ccc7=O)c6)nc5)CC4)CC3)ccc12` (stereo not shown) [ICT-0001228] displayed a 50% inhibitory concentration (IC50) with Hs746T of 100 to 1000 nM. Further, the DC50 on c-MET [1] was < 100 nM.
`N#Cc1cccc(-c2ccc(=O)n(Cc3cccc(-c4ncc(OCC5CCN(c6ccc(NC7CCC(=O)NC7=O)cc6F)CC5)cn4)c3)n2)c1` (stereo not shown) [ICT-0001383]: the DC50 at c-MET [2] and on c-MET [3] was < 100 nM throughout. For the same molecule, the IC50 is < 100 nM in the test on EBC-1 (Homo sapiens, EBC-1, 72 h) and < 100 nM with SNU-638 (Homo sapiens, SNU-638, 72 h).
Consider `N#Cc1cccc(-c2ccc(=O)n(Cc3cccc(-c4ncc(OCC5CCN(CCC(=O)N6CCN(c7ccc8c(=O)n(C9CCC(=O)NC9=O)ncc8c7)CC6)CC5)cn4)c3)n2)c1` (stereo not shown) [ICT-0001223], for which the half-maximal inhibitory concentration (IC50) in the test with Hs746T and in the test with MKN-45 was < 100 nM in each case. At c-MET [1], the DC50 is < 100 nM.
In the case of `N#Cc1cccc(-c2ccc(=O)n(Cc3cccc(-c4ncc(-c5cccc(CN6CCN(c7ccc(NC8CCC(=O)NC8=O)cc7F)CC6)c5)cn4)c3)n2)c1` (stereo not shown) [ICT-0001434], the values for the DC50 at c-MET [2] and at c-MET [3] were > 1000 nM and < 100 nM, respectively. Moreover, the IC50 is < 100 nM in the test with EBC-1 (Homo sapiens, EBC-1, 72 h) and < 100 nM in the test on SNU-638 (Homo sapiens, SNU-638, 72 h).
For the molecule `N#Cc1cccc(-c2ccc(=O)n(Cc3cccc(-c4ncc(OCC5CCN(CCN6CCN(c7ccc(NC8CCC(=O)NC8=O)cc7F)CC6)CC5)cn4)c3)n2)c1` (stereo not shown) [ICT-0001433, 3-(1-(3-(5-((1-(1-(2-(4-((2,6-dioxopiperidine-3-yl)amino)-2-fluorophenyl)piperazine-1-il)ethyl)piperidine-4-il)methoxy)pyrimidine-2-yl)benzyl)6-oxo-1,6-dihydropyridazine-3-yl)benzonitrile], the DC50 on c-MET [2] and on c-MET [3] was < 100 nM each time. For the same molecule, the IC50 in the test with EBC-1 (Homo sapiens, EBC-1, 72 h) was < 100 nM; in the test with SNU-638 (Homo sapiens, SNU-638, 72 h), < 100 nM.
On to `Cc1nn(C2CCC(=O)NC2=O)c(=O)c2ccc(N3CCN(CCN4CCC(COc5cnc(-c6cccc(Cn7nc(-c8cccc(C#N)c8)ccc7=O)c6)nc5)CC4)CC3)cc12` (stereo not shown) [ICT-0001277, 3-(1-{[3-(5-{[1-(2-{4-[2-(2,6-dioxopiperidin-3-yl)-4-methyl-1-oxo-1,2-dihydrophthalazine-6-yl]piperazine-1-yl}ethyl)piperidine-4-il]methoxy}pyrimidine-2-yl)phenyl]methyl}6-oxo-1,6-dihydropyridazine-3-yl)benzonitrile], for which the DC50 at c-MET [2], on c-MET [4], at c-MET [3] and on c-MET [1] was < 100 nM in each case. The IC50 in the test on EBC-1 (Homo sapiens, EBC-1, 72 h) is < 100 nM; with Hs746T, < 100 nM; in the test on SNU-638 (Homo sapiens, SNU-638, 72 h) it was < 100 nM; in the test on MKN-45, < 100 nM.
For the molecule `N#Cc1cccc(-c2ccc(=O)n(Cc3cccc(-c4ncc(OCC5CCN(CC(=O)NCCCC#Cc6ccc7c(=O)n(C8CCC(=O)NC8=O)ncc7c6)CC5)cn4)c3)n2)c1` (stereo not shown) [ICT-0001205], the IC50 with Hs746T is 100 to 1000 nM; with MKN-45, < 100 nM. Moreover, the DC50 on c-MET [1] is < 100 nM.
For `N#Cc1cccc(-c2ccc(=O)n(Cc3cccc(-c4ncc(OCC5CCN(CC6CN(c7ccc(NC8CCC(=O)NC8=O)cc7F)C6)CC5)cn4)c3)n2)c1` (stereo not shown) [ICT-0001425], the DC50 on c-MET [2] and on c-MET [3] was < 100 nM each time. In addition, the IC50 in the test on EBC-1 (EBC-1 cells, 72 hours, WST-8, Table 2) was < 100 nM; in the test with SNU-638 (SNU-638 cells, 72 hours, WST-8, Table 2), < 100 nM.
Turning to `Cc1nn(C2CCC(=O)NC2=O)c(=O)c2ccc(N3CCN(C(=O)CCCCN4CCC(COc5cnc(-c6cccc(Cn7nc(-c8cccc(C#N)c8)ccc7=O)c6)nc5)CC4)CC3)cc12` (stereo not shown) [ICT-0001250], the IC50 in the test on Hs746T and in the test on MKN-45 was < 100 nM in each case.
Take `N#Cc1cccc(-c2ccc(=O)n(Cc3cccc(-c4ncc(N5CCN(CC6CCN(c7ccc(NC8CCC(=O)NC8=O)cc7F)CC6)CC5)cn4)c3)n2)c1` (stereo not shown) [ICT-0001402]: the DC50 on c-MET [2], at c-MET [4] and at c-MET [3] was < 100 nM each time. Besides, the IC50 with EBC-1 (Homo sapiens, EBC-1, 72 h) is < 100 nM; in the test on Hs746T it was < 100 nM; in the test with SNU-638 (Homo sapiens, SNU-638, 72 h), < 100 nM.
In the case of `N#Cc1cccc(-c2ccc(=O)n(Cc3cccc(-c4ncc(OCC5CCN(C(=O)CN6CCN(c7ccc(NC8CCC(=O)NC8=O)cc7F)CC6)CC5)cn4)c3)n2)c1` (stereo not shown) [ICT-0001494], the DC50 at c-MET [2] and on c-MET [3] was < 100 nM each time. Also, the IC50 in the test on EBC-1 (Homo sapiens, EBC-1, 72 h) was < 100 nM; with SNU-638 (Homo sapiens, SNU-638, 72 h), < 100 nM.
As to `Cc1nn(C2CCC(=O)NC2=O)c(=O)c2ccc(N3CCN(c4ccc(NC(=O)CN5CCC(COc6cnc(-c7cccc(Cn8nc(-c9cccc(C#N)c9)ccc8=O)c7)nc6)CC5)cc4)CC3)cc12` (stereo not shown) [ICT-0001207], the half-maximal degradation concentration (DC50) on c-MET [2], at c-MET [4], on c-MET [3] and at c-MET [1] was < 100 nM throughout. Further, the IC50 with EBC-1 (Homo sapiens, EBC-1, 72 h) was < 100 nM; in the test on Hs746T, 100 to 1000 nM; with SNU-638 (Homo sapiens, SNU-638, 72 h), < 100 nM; in the test with MKN-45, < 100 nM.
